Patent publication US11179371B2, “Triazole benzamide derivatives as GPR142 agonists” (Boehringer Ingelheim International GmbH, priority 2018, dated 2021)

Molecular target: T1, human GPR142 receptor (Homo sapiens, UniProt Q7Z601)
T1 construct: Gene ID: 350383) was cloned; expressed in transfected cells
T1 sequence (Q7Z601 1-462): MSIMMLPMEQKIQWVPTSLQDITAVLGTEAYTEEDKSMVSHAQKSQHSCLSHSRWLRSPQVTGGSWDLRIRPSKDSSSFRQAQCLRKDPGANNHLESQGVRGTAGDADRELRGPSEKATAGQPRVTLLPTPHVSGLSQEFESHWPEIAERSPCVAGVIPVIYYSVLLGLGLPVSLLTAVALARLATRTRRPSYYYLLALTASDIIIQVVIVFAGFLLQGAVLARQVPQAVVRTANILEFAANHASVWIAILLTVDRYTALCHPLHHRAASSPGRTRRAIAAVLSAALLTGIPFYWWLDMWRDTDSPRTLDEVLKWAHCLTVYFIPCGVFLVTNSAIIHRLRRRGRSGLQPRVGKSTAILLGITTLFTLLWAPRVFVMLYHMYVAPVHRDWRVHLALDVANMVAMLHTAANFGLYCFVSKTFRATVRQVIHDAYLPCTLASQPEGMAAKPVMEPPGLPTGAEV
Test: IP1 accumulation HTRF assay for GPR142 agonist activity in HEK293 FLPinTREX cells
Format: cell-based
Conditions: HEK293 FLPinTREX cells stably expressing human GPR142, IP1 generation (IP-One HTRF), 60 minutes at 37° C.
Procedure: This assay allows monitoring activity of compounds acting on Gq-coupled receptors. The principle of the assay is based on the competition between IP1 generated in the cells with d2-labeled IP1 for binding to a monoclonal anti-IP1 […] cryptate that allows for measuring quantitative changes using the Homogeneous Time Resolved Fluorescence. LiCl is added to the cell stimulation buffer, causing IP1 to accumulate upon receptor activation.
The open reading frame encoding the human GPR142 receptor (primary accession number: NM_181790; Gene ID: 350383) was cloned into the pcDNA5/FRT/TO vector for stable, and inducible expression using the Flp-In™ T-REx™ technology in HEK293 FLPinTREX cells. For stable expression, HEK293 FLPinTREX cells were co-transfected with the vector encoding human GPR142 and the pOG44 plasmid that constitutively expresses the Flp recombinase for stable integration of the human GPR142 into the genome of the Flp-In™ T-REx™ host cell line. Stably expressing clones were obtained by hygromycin (100 μg/ml) selection. To test for GPR142 agonist activity the human GPR142 receptor cell clone was thawed at 37° C. and immediately diluted with cell culture medium (Hams F12 medium; 10% FBS, 15 μg/ml Blasticidin, 100 μg/ml Hygromycin B). After centrifugation, the cell pellet was resuspended in medium, and distributed into the assay well plates (10000 cells/well; 20 μl/well). Receptor expression was induced by adding 0.1 μg/ml Doxycyclin to the culture medium. The plates were incubated for one hour at room temperature, followed by a 24 hours incubation at 37° C./5% CO2. After washing the cells in the plate twice with 60 μl assay buffer (10 mM HEPES, 1 mM CaCl2, 0.5 mM MgCl2, 4.2 mM KCl, 146 mM NaCl, 5.5 mM Glucose, 50 mM LiCl and 0.1% BSA, pH 7.4; 20 μl buffer remained in the wells after washing), 10 μl per well of test compound diluted in assay buffer was added to the wells. The assay plate was incubated for 60 minutes at 37° C. Then 5 μl per well of Anti-IP1-Cryptate Tb solution (prepared by 1:33 dilution of stock with Lysis buffer from IP-One Kit) and 5 μl per well of IP1-d2 (Prepared by 1:33 dilution of stock with Lysis buffer from IP-One Kit) dilution were added, followed by another 60 minutes incubation (light protected, room temperature). The emissions at 615 nm and 665 nm (excitation wavelength: 320 nm) were measured on the EnVision™ reader (PerkinElmer). The ratio between the emission at 665 nm and 615 was calculated by the reader.
Each assay microtiter plate contained 8 wells in with vehicle controls instead of compound (100% CTL; low values, negative control) and 8 wells with a reference GPR142 agonist (200% CTL; high values; positive control). An IP1 standard curve was prepared according to the manufacturer.
The ratio between the emission at 665 nm and the emission at 615 nm (Em665/Em615 ratio) was calculated and the signals for the test items were normalized using the positive and negative controls by the following formula: 100−(100×[(ratio(sample)−ratio(low))/(ratio(high)−ratio(low))].

| Compound | EC50 [pM] |
| --- | --- |
| Cc1cccc(NC(=O)c2cccc(-n3cc(-c4cncn4C)nn3)c2)c1 [Example 7] | 370 |
| Cc1ncn(C)c1-c1cn(-c2cccc(C(=O)Nc3cccc(Cl)c3)c2)nn1 [Example 17] | 950 |
| Cc1ncn(C)c1-c1cn(-c2cccc(C(=O)Nc3cccc(OC(F)(F)F)c3)c2)nn1 [Example 18] | 640 |
| Cn1cncc1-c1cn(-c2cccc(C(=O)Nc3cc(F)cc(C(F)(F)F)c3)c2)nn1 [Example 10] | < 380 |
| COc1cccc(NC(=O)c2cccc(-n3cc(-c4cncn4C)nn3)c2)c1 [Example 14] | 860 |
| Cn1cncc1-c1cn(-c2cccc(C(=O)Nc3cccc(C(F)(F)F)c3F)c2)nn1 [Example 9] | 450 |
| CN(C)c1cccc(NC(=O)c2cccc(-n3cc(-c4cncn4C)nn3)c2)c1 [Example 13] | 850 |
| Cc1ccc(C(=O)Nc2cccc(OC(F)(F)F)c2)cc1-n1cc(-c2cncn2C)nn1 [Example 6] | 210 |
| Cn1cncc1-c1cn(-c2cccc(C(=O)Nc3cccc(OC(F)(F)C(F)F)c3)c2)nn1 [Example 20] | 640 |
| Cn1cncc1-c1cn(-c2cccc(C(=O)Nc3cccc(Cl)c3)c2)nn1 [Example 3] | 210 |
| Cn1cncc1-c1cn(-c2cccc(C(=O)Nc3cccc(C(F)(F)F)c3)c2)nn1 [Example 2, 3-[4-(1-Methyl-1H-imidazol-5-yl)-1H-1,2,3-triazol-1-yl]-N-[3-(trifluoromethyl)-phenyl]benzamide] | 50 |
| Cc1ccc(C(=O)Nc2cccc(Cl)c2)cc1-n1cc(-c2cncn2C)nn1 [Example 5] | 370 |
| COC(=O)c1cccc(NC(=O)c2cccc(-n3cc(-c4cncn4C)nn3)c2)c1 [Example 12] | 730 |
| Cc1cc(Br)cc(NC(=O)c2cccc(-n3cc(-c4cncn4C)nn3)c2)c1 [Example 16] | < 380 |
| Cn1cncc1-c1cn(-c2cccc(C(=O)Nc3cccc(OC(F)F)c3)c2)nn1 [Example 19] | < 380 |
| Cn1cncc1-c1cn(-c2cccc(C(=O)Nc3cccc(C#N)c3)c2)nn1 [Example 11] | 740 |
| Cc1ccc(C(=O)Nc2cccc(C(F)(F)F)c2)cc1-n1cc(-c2cncn2C)nn1 [Example 1] | 400 |
| Cc1ncn(C)c1-c1cn(-c2cccc(C(=O)Nc3cccc(C(F)(F)F)c3)c2)nn1 [Example 8, 3-[4-(1,4-Dimethyl-1H-imidazol-5-yl)-1H-1,2,3-triazol-1-yl]-N-[3-(trifluoromethyl)-phenyl]benzamide] | 630 |
| Cn1cncc1-c1cn(-c2cccc(C(=O)Nc3cccc(OC(F)(F)F)c3)c2)nn1 [Example 4] | 470 |
| Cn1cncc1-c1cn(-c2cccc(C(=O)Nc3cccc([N+](=O)[O-])c3)c2)nn1 [Example 15] | < 380 |
